Molecules are shown by their SMILES.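 Grown in 96-well plates, cells were treated for 48 hours with each compound at five concentrations. Insufficient inhibition: endpoint recorded as highest concentration tested. GI50: concentration for 50% inhibition of growth. TGI is the concentration that stops growth completely.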

Test systems include HL-60(TB) leukemia; RXF 393 renal; OVCAR-8 ovarian; SK-MEL-5 melanoma; NCI-H522 lung; CCRF-CEM leukemia; NCI-H460 lung; UACC-62 melanoma; EKVX NSCLC; SNB-19 CNS.
What all share (assay): NCI-60 cell line screen, 48 h

As for `CC(C)c1c2[nH]c3ccccc3c2c(C(C)C)c2[nH]c3ccccc3c12`, the TGI in the assay on HL-60(TB) leukemia was more than 62.5 µM; in the assay on RXF 393 renal it was more than 100 µM; in the assay with OVCAR-8 ovarian, more than 100 µM; in the assay on SK-MEL-5 melanoma, more than 100 µM; in the assay on NCI-H522 lung, more than 100 µM; with CCRF-CEM leukemia, more than 100 µM. In addition, the TGI in the assay on NCI-H460 lung, in the assay with UACC-62 melanoma, in the assay on EKVX NSCLC and in the assay on SNB-19 CNS was more than 100 µM in each case.

`COC(=O)c1nc(-c2ccccc2)oc1S(=O)(=O)n1nc(C)cc1N`: the GI50 in the assay on HL-60(TB) leukemia was 3.02 µM; in the assay with RXF 393 renal, 11.9 µM; with OVCAR-8 ovarian, 19.7 µM; in the assay with SK-MEL-5 melanoma it was 15.5 µM; with NCI-H522 lung, 2.06 µM; in the assay on CCRF-CEM leukemia it was 2.11 µM. The GI50 with NCI-H460 lung was 17.6 µM; in the assay on UACC-62 melanoma, 13.7 µM; with EKVX NSCLC it was 16.7 µM; in the assay with SNB-19 CNS, 15.6 µM. Further, the TGI came to 12.5 µM in the assay on HL-60(TB) leukemia; 24.7 µM with RXF 393 renal; 50.3 µM in the assay with OVCAR-8 ovarian; 29.7 µM with SK-MEL-5 melanoma; 4.06 µM with NCI-H522 lung; 10.5 µM with CCRF-CEM leukemia. The TGI in the assay with NCI-H460 lung came to 36.3 µM; in the assay on UACC-62 melanoma, 28.1 µM; in the assay with EKVX NSCLC it was 43.9 µM; in the assay on SNB-19 CNS it was 34.3 µM.

Take `CC(C)(C)c1ccc(C(=O)Nc2sc3c(c2C(N)=O)CCC(=O)C3)cc1`: the GI50 was 0.481 µM in the assay with HL-60(TB) leukemia; 0.426 µM with RXF 393 renal; 0.831 µM in the assay with OVCAR-8 ovarian; 1.53 µM with SK-MEL-5 melanoma; 0.318 µM in the assay with NCI-H522 lung; 0.215 µM in the assay on CCRF-CEM leukemia. The GI50 is 0.586 µM in the assay on NCI-H460 lung, 0.498 µM in the assay with UACC-62 melanoma, 1.97 µM with EKVX NSCLC and 0.457 µM in the assay with SNB-19 CNS. The TGI with HL-60(TB) leukemia stood at 4.82 µM; in the assay on RXF 393 renal, 1.94 µM; with OVCAR-8 ovarian, 4.85 µM; in the assay with SK-MEL-5 melanoma, 2.96 µM; in the assay with NCI-H522 lung it was 1.91 µM; in the assay with CCRF-CEM leukemia it was 3.37 µM. Moreover, the TGI in the assay with NCI-H460 lung was found to be 1.94 µM; with UACC-62 melanoma, 2.01 µM; with EKVX NSCLC, 4.82 µM; with SNB-19 CNS, 1.94 µM.

With `CCN1C(=O)N(CC)C2C1NN=c1s/c(=C\c3ccccc3Br)c(=O)n12` (stereo unspecified), the GI50 was 0.0241 µM with HL-60(TB) leukemia; 0.0389 µM in the assay with RXF 393 renal; 0.0424 µM in the assay on OVCAR-8 ovarian; 0.0319 µM in the assay on SK-MEL-5 melanoma; 0.019 µM in the assay on NCI-H522 lung; 0.0354 µM in the assay on CCRF-CEM leukemia. Further, the GI50 with NCI-H460 lung is 0.0337 µM; in the assay with UACC-62 melanoma, 0.278 µM; in the assay with EKVX NSCLC it was 0.317 µM; with SNB-19 CNS it was 0.052 µM. In addition, the TGI in the assay on HL-60(TB) leukemia was 0.0639 µM; with RXF 393 renal, 17.4 µM; with OVCAR-8 ovarian it was more than 73.5 µM; in the assay on SK-MEL-5 melanoma, 0.133 µM; with NCI-H522 lung, 1.12 µM; in the assay on CCRF-CEM leukemia, more than 100 µM. Also, the TGI in the assay on NCI-H460 lung was 4.14 µM; with UACC-62 melanoma, 20.6 µM; in the assay with EKVX NSCLC it was more than 70.7 µM; with SNB-19 CNS, more than 67.9 µM.

On to `CC1=CC(=O)C(O)C2(C)C1CC(O)C13COC4(C)C(OC(=O)C41)C(O)C23` (stereo unspecified), for which the GI50 in the assay on HL-60(TB) leukemia was 4.24 µM; with RXF 393 renal it was 1.36 µM; in the assay with OVCAR-8 ovarian, 5.57 µM; in the assay on SK-MEL-5 melanoma, 5.06 µM; in the assay with NCI-H522 lung, 6.65 µM; with CCRF-CEM leukemia it was 5.79 µM. The GI50 in the assay on NCI-H460 lung is 5.2 µM; with UACC-62 melanoma, 8.02 µM; with EKVX NSCLC, 11.9 µM; in the assay with SNB-19 CNS, 7.94 µM. The TGI in the assay on HL-60(TB) leukemia was more than 100 µM; in the assay on RXF 393 renal it was 6.98 µM; in the assay with OVCAR-8 ovarian, 25.2 µM; in the assay on SK-MEL-5 melanoma, 21.2 µM; in the assay on NCI-H522 lung it was 30.5 µM; with CCRF-CEM leukemia it was more than 100 µM. Further, the TGI is 62.7 µM in the assay with NCI-H460 lung, 32.3 µM with UACC-62 melanoma, 41.6 µM in the assay on EKVX NSCLC and more than 100 µM with SNB-19 CNS.

As to `CCC1(O)C(=O)OCc2c1cc1n(c2=O)Cc2cc3cc(N)ccc3nc2-1` (stereo unspecified), the TGI with HL-60(TB) leukemia is 0.0145 µM; with RXF 393 renal, 1.12 µM; with OVCAR-8 ovarian, 4.45 µM; in the assay with SK-MEL-5 melanoma it was 0.0761 µM; in the assay with NCI-H522 lung, 0.27 µM; with CCRF-CEM leukemia, less than 0.01 µM. Also, the TGI was 0.189 µM in the assay on NCI-H460 lung, 0.251 µM in the assay on UACC-62 melanoma, more than 28.9 µM with EKVX NSCLC and 3.36 µM in the assay on SNB-19 CNS. In the assay with RXF 393 renal, the GI50 is 0.126 µM.

`CNS(=O)(=O)NNS(=O)(=O)c1ccc(Cl)cc1`: the TGI in the assay on HL-60(TB) leukemia, in the assay with RXF 393 renal, in the assay on OVCAR-8 ovarian, with SK-MEL-5 melanoma, in the assay on NCI-H522 lung and in the assay with CCRF-CEM leukemia was more than 100 µM each time. Besides, the TGI with NCI-H460 lung, in the assay with UACC-62 melanoma, in the assay with EKVX NSCLC and in the assay with SNB-19 CNS was more than 100 µM in each case.

For the compound `COc1ccc(OC)c(Cn2cc3c(c2)-c2oncc2CC3)c1`, the GI50 was 1.65 µM in the assay with HL-60(TB) leukemia; 2.67 µM with RXF 393 renal; 5.27 µM with OVCAR-8 ovarian; 2.61 µM in the assay with SK-MEL-5 melanoma; 1.63 µM in the assay on NCI-H522 lung; 2.13 µM in the assay with CCRF-CEM leukemia. For the same compound, the GI50 in the assay with NCI-H460 lung is 3.26 µM; with UACC-62 melanoma, 3.97 µM; with EKVX NSCLC, 4.22 µM; in the assay with SNB-19 CNS, 4.74 µM. For the same compound, the TGI was 6.74 µM in the assay on HL-60(TB) leukemia; 15.7 µM in the assay on RXF 393 renal; more than 100 µM with OVCAR-8 ovarian; 8.99 µM in the assay on SK-MEL-5 melanoma; 4.89 µM in the assay on NCI-H522 lung; more than 26 µM in the assay with CCRF-CEM leukemia. The TGI was 17.7 µM in the assay with NCI-H460 lung, more than 100 µM in the assay with UACC-62 melanoma, more than 100 µM in the assay with EKVX NSCLC and more than 100 µM in the assay with SNB-19 CNS.

Turning to `COc1ccc(-c2cc(=O)c3c(OC)c(OC)c(OC)c(OC)c3o2)cc1`, the TGI is more than 100 µM in the assay with HL-60(TB) leukemia; more than 100 µM with RXF 393 renal; more than 100 µM with OVCAR-8 ovarian; more than 100 µM in the assay with SK-MEL-5 melanoma; 66.5 µM in the assay with NCI-H522 lung; more than 100 µM in the assay on CCRF-CEM leukemia. For the same compound, the TGI was more than 100 µM in the assay with NCI-H460 lung, 84 µM in the assay on UACC-62 melanoma, more than 100 µM in the assay on EKVX NSCLC and more than 100 µM in the assay on SNB-19 CNS.

Source of the values: PubChem BioAssay (NCI).
